Experiments:
[1] = test system: human peripheral blood mononuclear cells; test: Inhibition of R848-induced TNF-α production from human peripheral blood mononuclear cells by BDCA2-ADC; format: cell-based; details: 5 μM R848, 24 h
Method: The inhibitory effects of the antibody-drug conjugate molecules of the present application on the production from peripheral blood mononuclear cells were detected. Peripheral blood mononuclear cells produce a large number of cytokines after the stimulation of the TLR7/8 agonist R848. The peripheral blood mononuclear cells were treated in vitro with the BDCA2 antibody-drug conjugate at different concentrations, and IFNα and TNFα produced by the peripheral blood mononuclear cells were quantitatively detected after the stimulation of 5 μM R848 for a certain period of time. The in vitro activity of the ligand-drug conjugates was evaluated based on the extent of cytokine inhibition.
The cryopreserved human peripheral blood mononuclear cells were thawed, resuspended in a complete culture medium and counted, and the cell suspension was adjusted to 2.5×10^6 cells/mL with the culture medium and cultured overnight. […] The supernatant was collected, and the TNF-α and IFN-α concentration levels in the supernatant were detected using an ELISA kit. Dose-response data were fitted to an S-shaped curve using non-linear regression, and IC50 values were calculated.
TNF-α concentration assay was performed using a Dakewe TNF-α ELISA kit (Cat. No. 1117202). […] The reading at wavelength 450 nm was detected using an M2e instrument within 10 min after the termination. […]

[2] = test system: cynomolgus monkey whole blood stimulated with CpG-A; test: TNF-α after in vitro CpG-A stimulation of whole blood of dosed cynomolgus monkeys; format: in vivo; details: 10 mg/kg i.v.; CpGA-stimulated whole blood
Method: Cytokine expression was detected by whole blood stimulation in vitro.
The cells were cultured at 37° C. for 18 h, and the supernatant was collected. The TNF-α and IFN-α concentration levels in the supernatant were detected using an ELISA kit.
TNF-α concentration assay was performed using a R&D Primate TNF-α DuoSet ELISA kit (Cat. No. DY1070). 50 μL of serially diluted cytokine standard was added to each standard well, 50 μL of test sample was added to each sample well, and 50 μL of PBS was added to each blank control well. The cells were incubated at 37° C. for 2 h. The plate was washed 3 times: the liquid in each well was removed, and 300 μL of 1× PBST buffer working solution was added to each well; and after 1 minute of residence, the liquid in each well was discarded. 100 μL of detection antibody working solution was added to each well, and the cells were incubated at 37° C. for 1 h. […] The reading at wavelength 450 nm was detected using a Molecular device spectra max plus384 instrument within 10 min after the reaction was stopped.
Evaluation criteria in FIGS. 12-13: the average expression level changes of IFNα/TNFα were evaluated after in vitro stimulation of the whole blood with CpGA at 200 μg/mL on days 0-33 after administration. […]

[3] = test system: pDCs in the peripheral blood of cynomolgus monkeys; test: pDC percentage and BDCA2 expression level on pDCs in peripheral blood of dosed cynomolgus monkeys by FACS; details: 10 mg/kg intravenous
Method: Nine female cynomolgus monkeys were divided into 3 groups, 3 cynomolgus monkeys per group.
The pDC percentage in the peripheral blood and the BDCA2 expression level on the surface of pDCs were detected by FACS.
Venous blood of the cynomolgus monkeys was collected by using a heparin anticoagulation tube, 6 mL of red blood cell lysis buffer was added to 300 μL of the blood, and the resulting mixture was placed at room temperature for 10 min. The cells were collected by centrifugation at 400 g for 5 min at room temperature. The cells were washed with PBS and resuspended in 100 μL of cell staining buffer (PBS+1% FBS). 5 μL of Fc Block was added to the cell suspension and left to stand at 4° C. for 10 min. […] The cells were washed twice with PBS, resuspended in 200 μL of the cell staining buffer, and analyzed by using a flow cytometer.

## BIIB059: reference antibody specifically binding to BDCA2, sequence derived from U.S. Pat. No. 9,902,775B2; SEQ ID NO: 25 and 26 [reference compound]
[1]
  inhibitory effect on TNF-α secretion: did not have an inhibitory effect
[2]
  TNFα expression level compared to the blank control group: no significant change
[3]
  BDCA2 level on the surface of pDCs in the blood compared to the blank control: reduced
  pDC percentage in the blood compared to the blank control: no significant change
